What all share (format): cell-based
One experiment concerns the target T1, human TLR7 (Homo sapiens, UniProt Q9NYK1).
T1 construct: host or cells: HEK-Blue cells (HEK293-derived reporter line)
T1 sequence (Q9NYK1 27-1049): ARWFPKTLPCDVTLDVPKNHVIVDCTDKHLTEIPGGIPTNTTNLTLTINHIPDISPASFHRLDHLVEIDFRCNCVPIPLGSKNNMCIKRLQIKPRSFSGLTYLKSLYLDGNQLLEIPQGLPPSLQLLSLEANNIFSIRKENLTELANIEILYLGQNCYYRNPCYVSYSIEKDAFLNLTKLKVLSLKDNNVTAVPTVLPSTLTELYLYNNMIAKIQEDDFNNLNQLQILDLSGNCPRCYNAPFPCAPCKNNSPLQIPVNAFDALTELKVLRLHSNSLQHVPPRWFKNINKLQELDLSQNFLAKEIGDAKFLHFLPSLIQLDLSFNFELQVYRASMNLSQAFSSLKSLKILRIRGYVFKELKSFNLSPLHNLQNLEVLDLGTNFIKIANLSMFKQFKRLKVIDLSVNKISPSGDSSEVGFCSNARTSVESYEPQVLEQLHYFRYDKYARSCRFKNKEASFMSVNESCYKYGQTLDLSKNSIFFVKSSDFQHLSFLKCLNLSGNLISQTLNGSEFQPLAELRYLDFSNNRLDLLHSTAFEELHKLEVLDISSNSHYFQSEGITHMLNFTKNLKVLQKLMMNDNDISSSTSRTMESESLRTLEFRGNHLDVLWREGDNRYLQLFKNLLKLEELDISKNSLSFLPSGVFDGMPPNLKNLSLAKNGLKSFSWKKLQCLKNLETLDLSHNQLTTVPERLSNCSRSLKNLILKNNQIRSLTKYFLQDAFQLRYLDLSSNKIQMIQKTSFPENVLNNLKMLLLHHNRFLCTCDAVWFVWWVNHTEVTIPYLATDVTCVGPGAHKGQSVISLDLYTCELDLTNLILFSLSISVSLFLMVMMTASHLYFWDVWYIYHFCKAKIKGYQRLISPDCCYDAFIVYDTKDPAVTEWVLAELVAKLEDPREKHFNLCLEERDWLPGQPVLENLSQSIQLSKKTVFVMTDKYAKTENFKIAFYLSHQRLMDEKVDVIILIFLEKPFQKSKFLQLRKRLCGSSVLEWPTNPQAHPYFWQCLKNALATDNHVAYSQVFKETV
Briefly: TLR7 inhibition reporter assay (HEK-Blue cells, secreted embryonic alkaline phosphatase reporter). The settings on record: HEK-Blue cells overexpressing human TLR7, stimulated with gardiquimod 7.5 μM; read-out: TLR 7 IC50. The method in brief: (§1)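 HEK-Blue cells overexpressing the respective receptor, with an NF-κB/AP-1-driven SEAP reporter, were pre-treated with compound (0.05 nM–50 μM) for 30 min at room temperature. Stimulation used gardiquimod 7.5 μM (TLR7), R848 15.9 μM (TLR8) or ODN2006 5 nM (TLR9); SEAP was read after 22 h at 37 °C as percent inhibition.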
(A reporter such as luciferase makes a cellular process visible.)

The next experiment has as its target T2, human TLR8 (Homo sapiens, UniProt Q9NR97).
T2 construct: host or cells: HEK-Blue cells (HEK293-derived reporter line)
T2 sequence (Q9NR97 27-1041): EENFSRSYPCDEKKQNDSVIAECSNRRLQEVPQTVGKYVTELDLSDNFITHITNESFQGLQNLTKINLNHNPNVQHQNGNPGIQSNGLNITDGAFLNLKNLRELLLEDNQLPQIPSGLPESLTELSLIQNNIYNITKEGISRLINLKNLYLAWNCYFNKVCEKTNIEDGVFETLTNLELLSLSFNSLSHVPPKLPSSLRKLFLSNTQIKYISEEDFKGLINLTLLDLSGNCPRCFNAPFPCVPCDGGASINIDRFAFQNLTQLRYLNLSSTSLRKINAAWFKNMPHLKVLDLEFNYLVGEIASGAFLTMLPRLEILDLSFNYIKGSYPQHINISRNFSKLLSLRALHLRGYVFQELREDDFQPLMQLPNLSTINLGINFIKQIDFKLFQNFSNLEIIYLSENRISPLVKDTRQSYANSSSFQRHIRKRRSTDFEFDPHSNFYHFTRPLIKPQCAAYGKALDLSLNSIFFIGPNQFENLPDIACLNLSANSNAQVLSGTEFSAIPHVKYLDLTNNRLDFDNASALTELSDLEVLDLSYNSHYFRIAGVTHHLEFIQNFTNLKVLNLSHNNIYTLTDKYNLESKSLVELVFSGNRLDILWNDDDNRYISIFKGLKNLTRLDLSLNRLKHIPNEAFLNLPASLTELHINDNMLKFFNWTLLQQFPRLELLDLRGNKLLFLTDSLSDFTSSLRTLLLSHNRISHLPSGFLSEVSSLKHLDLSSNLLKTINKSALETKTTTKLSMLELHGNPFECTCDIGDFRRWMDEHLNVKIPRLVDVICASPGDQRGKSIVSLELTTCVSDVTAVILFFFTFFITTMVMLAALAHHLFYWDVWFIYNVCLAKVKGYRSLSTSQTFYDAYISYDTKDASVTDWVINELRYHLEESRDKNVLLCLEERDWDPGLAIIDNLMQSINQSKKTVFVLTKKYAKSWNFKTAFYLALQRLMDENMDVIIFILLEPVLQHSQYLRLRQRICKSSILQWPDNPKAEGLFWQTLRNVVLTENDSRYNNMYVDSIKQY
Briefly: TLR8 inhibition reporter assay (HEK-Blue cells, secreted embryonic alkaline phosphatase reporter). The settings on record: HEK-Blue cells overexpressing human TLR8, stimulated with R848 15.9 μM; read-out: TLR 8 IC50. A digest of the protocol:
as §1

Another experiment concerns the target T3, human TLR9 (Homo sapiens, UniProt Q9NR96).
T3 construct: host or cells: HEK-Blue cells (HEK293-derived reporter line)
T3 sequence (Q9NR96 26-1032): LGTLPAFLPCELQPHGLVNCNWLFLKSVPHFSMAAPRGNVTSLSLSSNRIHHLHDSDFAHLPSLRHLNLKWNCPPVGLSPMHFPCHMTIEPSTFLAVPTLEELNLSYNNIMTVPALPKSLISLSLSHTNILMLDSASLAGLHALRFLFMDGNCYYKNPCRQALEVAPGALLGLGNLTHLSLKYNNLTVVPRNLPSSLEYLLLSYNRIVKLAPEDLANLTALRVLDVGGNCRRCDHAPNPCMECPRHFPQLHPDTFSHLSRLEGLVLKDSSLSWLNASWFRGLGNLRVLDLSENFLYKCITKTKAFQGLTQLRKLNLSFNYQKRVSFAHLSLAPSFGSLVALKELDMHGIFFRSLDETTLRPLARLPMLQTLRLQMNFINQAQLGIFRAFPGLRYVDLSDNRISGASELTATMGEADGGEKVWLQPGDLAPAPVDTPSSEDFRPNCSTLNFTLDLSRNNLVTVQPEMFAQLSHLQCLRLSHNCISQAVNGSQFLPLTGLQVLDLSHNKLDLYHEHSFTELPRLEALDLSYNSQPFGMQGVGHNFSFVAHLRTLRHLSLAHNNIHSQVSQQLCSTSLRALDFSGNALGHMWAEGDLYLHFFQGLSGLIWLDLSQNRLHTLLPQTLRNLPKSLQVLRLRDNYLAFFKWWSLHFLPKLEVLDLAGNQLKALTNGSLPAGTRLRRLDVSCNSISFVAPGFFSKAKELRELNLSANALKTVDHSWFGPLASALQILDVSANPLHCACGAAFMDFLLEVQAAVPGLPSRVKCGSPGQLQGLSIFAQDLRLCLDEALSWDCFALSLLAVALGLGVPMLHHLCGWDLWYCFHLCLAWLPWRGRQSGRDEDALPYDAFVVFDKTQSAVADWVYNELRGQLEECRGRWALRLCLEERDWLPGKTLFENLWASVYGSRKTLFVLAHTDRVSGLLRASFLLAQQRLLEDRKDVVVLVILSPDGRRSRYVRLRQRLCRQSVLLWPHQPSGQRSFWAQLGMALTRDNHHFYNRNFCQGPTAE
Briefly: TLR9 inhibition reporter assay (HEK-Blue cells, secreted embryonic alkaline phosphatase reporter). A digest of the protocol:
as §1

Where [1] appears, read: HEK-Blue cells overexpressing human TLR9, stimulated with ODN2006 5 nM, read-out: TLR 9 IC50.
The mark [2] stands for this setting: HEK-Blue cells overexpressing human TLR9, stimulated with ODN2006 5 nM, 22 hour incubation, reporter readout.
The mark [3] stands for this setting: HEK-Blue human TLR9 reporter cells.

Where two headings read alike, the source gives them in different places.

Broadly, the IC50 is the concentration at which inhibition is half-maximal. For `Cn1c(-c2ccc(S(C)(=O)=O)cc2)nc2cc(C3CCN(C4CCN(C5CC5)CC4)CC3)c(F)cc21` [Example 241, 5-(1′-cyclopropyl-[1,4′-bipiperidin]-4-yl)-6-fluoro-1-methyl-2-(4-(methylsulfonyl)phenyl)-1H-benzo[d]imidazole], the IC50 on human TLR7 was over 50000 nM; on human TLR8, over 50000 nM; on human TLR9 it was 1700 nM; at human TLR9 (setting [1]) it was 1710 nM.

On to `Cn1c(-c2ccc(S(C)(=O)=O)cc2)nc2cc(C3CCN(C4CC5CCC(C4)N5C4CCOCC4)CC3)cc(F)c21` (stereo not shown) [Example 212, 7-fluoro-1-methyl-2-(4-(methylsulfonyl)phenyl)-5-(1-(8-(tetrahydro-2H-pyran-4-yl)-8-azabicyclo[3.2.1]octan-3-yl)piperidin-4-yl)-1H-benzo[d]imidazole], for which the IC50 on human TLR7 was over 50000 nM; on human TLR8, over 50000 nM; against human TLR9, 460 nM; on human TLR9 (setting [1]) it was 456 nM.

Take `COc1ccc(-c2nc3ccc(C4CCN(C5CCN(C6CC6)CC5)CC4)cc3[nH]2)cc1OC` [Example 29, 6-(1′-cyclopropyl-[1,4′-bipiperidin]-4-yl)-2-(3,4-dimethoxyphenyl)-1H-benzo[d]imidazole]: the half-inhibitory concentration (IC50) at human TLR7 is 6600 nM; at human TLR8, over 50000 nM; against human TLR9 (setting [2]), 110 nM; on human TLR9 (setting [1]), 11.2 nM.

For `CC(C)N1CCCC(N2CCC(c3cc(F)c4nc(-c5ccc(S(C)(=O)=O)cc5)n(C)c4c3)CC2)CC1` (single isomer, unassigned) [Example 294, 4-fluoro-6-(1-(1-isopropylazepan-4-yl)piperidin-4-yl)-1-methyl-2-(4-(methylsulfonyl)phenyl)-1H-benzo[d]imidazole], the IC50 at human TLR7 was 2300 nM; at human TLR8, over 50000 nM; at human TLR9 (setting [1]), 55 nM; against human TLR9 (setting [3]), 55 nM.

Consider `COCCN1CCC(N2CCC(c3ccc4c(nc(-c5ccc(S(C)(=O)=O)cc5)n4C)c3F)CC2)CC1` [Example 188, 4-fluoro-5-(1′-(2-methoxyethyl)-[1,4′-bipiperidin]-4-yl)-1-methyl-2-(4-(methylsulfonyl)phenyl)-1H-benzo[d]imidazole], for which the IC50 at human TLR7 was over 50000 nM; at human TLR8, over 50000 nM; against human TLR9 it was 440 nM; on human TLR9 (setting [1]) it was 441 nM.

Turning to `Cn1c(-c2ccc(S(C)(=O)=O)cc2)nc2c(F)c(C3CCN(C4CC5CCC(C4)N5C4CCOCC4)CC3)ccc21` (stereo not shown) [Example 197, 4-fluoro-1-methyl-2-(4-(methylsulfonyl)phenyl)-5-(1-(8-(tetrahydro-2H-pyran-4-yl)-8-azabicyclo[3.2.1]octan-3-yl)piperidin-4-yl)-1H-benzo[d]imidazole], the IC50 on human TLR7 is over 50000 nM; on human TLR8 it was over 50000 nM; against human TLR9 it was 160 nM; at human TLR9 (setting [1]) it was 155 nM.

For the compound `Cn1c(-c2ccc(S(C)(=O)=O)cc2)nc2c(F)cc(C3CCN(C4CCCN(CC5CC5)CC4)CC3)cc21` (single isomer, unassigned) [Example 299, 6-(1-(1-(cyclopropylmethyl)azepan-4-yl)piperidin-4-yl)-4-fluoro-1-methyl-2-(4-(methylsulfonyl)phenyl)-1H-benzo[d]imidazole], the IC50 is 2100 nM on human TLR7, over 50000 nM at human TLR8, 3.3 nM at human TLR9 (setting [1]) and 3.3 nM against human TLR9 (setting [3]).

Turning to `CC(C)N1C2CCC1CC(N1CCC(c3cc(F)c4nc(-c5ccc(S(C)(=O)=O)cc5)n(C)c4c3)CC1)C2` (single isomer, unassigned) [Example 106, 4-fluoro-6-(1-(8-isopropyl-8-azabicyclo[3.2.1]octan-3-yl)piperidin-4-yl)-1-methyl-2-(4-(methylsulfonyl)phenyl)-1H-benzo[d]imidazole], the IC50 at human TLR7 is 35100 nM; at human TLR8 it was over 50000 nM; at human TLR9 (setting [2]), 390 nM; at human TLR9 (setting [1]), 387 nM.

Turning to `CS(=O)(=O)c1ccc(-c2nc3ccc(C4CCN(C5CCN(C6CC6)CC5)CC4)c(F)c3[nH]2)cc1` [Example 178, 6-(1′-cyclopropyl-[1,4′-bipiperidin]-4-yl)-7-fluoro-2-(4-(methylsulfonyl)phenyl)-1H-benzo[d]imidazole], the IC50 at human TLR7 is over 50000 nM; on human TLR8 it was over 50000 nM; against human TLR9, 240 nM; at human TLR9 (setting [1]), 238 nM.

Consider `CN(C)C1CCN(Cc2ccc(-c3ccc4nc(-c5ccc(S(C)(=O)=O)cc5)n(C)c4c3)cc2)CC1` [Example 375, N,N-dimethyl-1-(4-(1-methyl-2-(4-(methylsulfonyl)phenyl)-1H-benzo[d]imidazol-6-yl)benzyl)piperidin-4-amine], for which the IC50 on human TLR7 was determined as 1300 nM; at human TLR8, 400 nM; against human TLR9 (setting [2]), 200 nM; at human TLR9 (setting [1]), 203 nM.
